In patent US10087156B2, “Methods and compositions related to retinoid receptor-selective pathway” (Sanford Burnham Prebys Medical Discovery Institute, priority 2010, dated 2018):
“Also recorded” adds a separate entry of the source.

Tests used:
[1] = tested on: AKT; experiment: TNFα-induced AKT activation by immunoblotting; format: cell-based
Experimental: MEF and MCF-7 cells were starved overnight, pretreated with Sulindac for 1 hr, and stimulated with EGF (100 ng/ml) for 15 min. AKT activation was analyzed by immunoblotting (FIG. 12A). MEF and Caco-2 cells were starved overnight and pretreated with Sulindac for 30 min before exposure to all-trans-retinoic acid (ATRA) (10^−7 M) for 30 min and analyzed for AKT activation (FIG. 12B). AKT activation in ZR-75-1 breast cancer cells transfected with RXRα siRNA for 48 hr before exposure to 9-cis-RA (10^−7 M) for 30 min was also analyzed by immunoblotting (FIG. 12C). A549 lung cancer cells transfected with RXRα or control siRNA (FIG. 3C) and ZR-75-1 and PC3 cells (FIG. 3D) were pretreated with Sulindac (100 μM) for 1 hr before exposure to TNFα (10 ng/ml) for 30 min and analyzed for AKT activation and RXRα expression by immunoblotting.
For immunoblotting, cell lysates were boiled in SDS sample buffer, resolved by SDS-polyacrylamide gel electrophoresis, and transferred to nitrocellulose. After transfer, the membranes were blocked in 5% milk in TBST (10 mM Tris-HCl, pH. 8.0, 150 mM NaCl, 0.05% Tween 20) containing antibody. The membranes were then washed three times with TBST, then incubated for 1 hr at room temperature in 5% milk in TBST containing horseradish peroxide-linked anti-immunoglobulin.

[2] = tested on: HepG2 liver cancer cells; experiment: PARP cleavage and caspase-8 activation with TNFα by immunoblotting; format: cell-based; conditions: HepG2 (K-80003: HepG2 and PC3) cells, TNFα 10 ng/ml
Experimental: ZR-75-1 cells were treated with TNFα and/or Sulindac (75 μM) or K-80003 (50 μM) for 6 hr and analyzed by immunoblotting.
HepG2 cells cultured in medium with 1% FBS were treated with SR11237 (1 μM) for 1 hr, then TNFα (10 ng/ml) and/or Sulindac (75 μM) for 4 hr, and analyzed by immunoblotting. HepG2 cells transfected with control or RXRα siRNA were treated with TNFα and/or Sulindac and analyzed by immunoblotting.

[3] = tested on: HeLa/RXRα/1-134 stable clone; experiment: Colony formation (clonogenic survival) assay; format: cell-based; conditions: HeLa/RXRα/1-134 stable clone (also RXRα/Δ80 stable clones)
Experimental: HeLa RXR/α1-134 stable clone and control HeLa cells were seeded in 6-well plate, 350 cells/well. Five days later, cells were treated with Sulindac (50 μM) and K-80003 (25 μM) in 0.5% serum medium for 3 days. After washed with PBS, cells were fixed with 4% paraformaldehyde in PBS for 20 min. Colonies were stained with 0.1% crystal violet for 30 min, and pictures were taken and colonies were counted.

[4] = molecular target: T1, RXRα ligand-binding domain (LBD) (Homo sapiens, UniProt P19793); experiment: Competitive ligand-binding assay with [3H]9-cis-RA
T1 construct: made in house
T1 sequence (P19793 223-462): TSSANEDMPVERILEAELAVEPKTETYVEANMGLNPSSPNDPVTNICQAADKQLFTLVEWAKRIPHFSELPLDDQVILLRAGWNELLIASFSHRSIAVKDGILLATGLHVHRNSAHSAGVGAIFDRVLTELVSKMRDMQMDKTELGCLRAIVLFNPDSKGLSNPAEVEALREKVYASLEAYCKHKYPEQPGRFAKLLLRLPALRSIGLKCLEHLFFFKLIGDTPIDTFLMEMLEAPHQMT
Experimental: (§1) Competitive ligand-binding assays (FIG. 1A) and HPLC analysis of Sulindac binding to RXRα, Nur77, or RARβ in HEK293T cells (FIG. 1B) were performed. RXRα LBD protein was incubated with [^3H]9-cis-RA in the presence or absence of Sulindac or unlabeled 9-cis-RA. Bound [^3H]9-cis-RA was quantitated by liquid scintillation counting (FIG. 1A). HEK293T cells stably expressing RXRαfused to a C-terminal TAP tag (Stratagene, La Jolla, Calif.) were treated with or without 100 μM sulindac sulfide for 3 hr. After treatment, cells were purified and analyzed by HPLC for the presence of sulindac sulfide. A standard solution of sulindac sulfide was used to obtain the calibration curve. Characteristic peak spectrum and retention time was used for identification, and peak areas at max used for quantification were calculated (FIGS. 1B and 10). Sulindac sulfide bound to RXRα with an IC50 of 80 μM (FIG. 1A), which is in the concentration range that induces apoptosis.
Bacterially expressed His-tagged RXRα ligand-binding domain (LBD) (aa 223-462) was incubated with [^3H]-9-cis-RA (Amersham Biosciences, Amersham, UK) in ligand binding assay buffer in the presence or absence of various concentrations of unlabeled 9-cis-RA or sulindac sulfide. […] Bound radiolabeled 9-cis-RA was determined in a scintillation counter as described (Kolluri, S. K. et al., Proc Natl Acad Sci USA 102 (7), 2525-2530 (2005)).

[5] = molecular target: T2, Nur77 (Homo sapiens, UniProt P22736); experiment: HPLC analysis of sulindac sulfide binding to receptor protein in cells; conditions: HEK293T cells, 100 μM, 3 hr
T2 construct: expressed in transfected cells
T2 sequence (P22736 whole entry, species assumed): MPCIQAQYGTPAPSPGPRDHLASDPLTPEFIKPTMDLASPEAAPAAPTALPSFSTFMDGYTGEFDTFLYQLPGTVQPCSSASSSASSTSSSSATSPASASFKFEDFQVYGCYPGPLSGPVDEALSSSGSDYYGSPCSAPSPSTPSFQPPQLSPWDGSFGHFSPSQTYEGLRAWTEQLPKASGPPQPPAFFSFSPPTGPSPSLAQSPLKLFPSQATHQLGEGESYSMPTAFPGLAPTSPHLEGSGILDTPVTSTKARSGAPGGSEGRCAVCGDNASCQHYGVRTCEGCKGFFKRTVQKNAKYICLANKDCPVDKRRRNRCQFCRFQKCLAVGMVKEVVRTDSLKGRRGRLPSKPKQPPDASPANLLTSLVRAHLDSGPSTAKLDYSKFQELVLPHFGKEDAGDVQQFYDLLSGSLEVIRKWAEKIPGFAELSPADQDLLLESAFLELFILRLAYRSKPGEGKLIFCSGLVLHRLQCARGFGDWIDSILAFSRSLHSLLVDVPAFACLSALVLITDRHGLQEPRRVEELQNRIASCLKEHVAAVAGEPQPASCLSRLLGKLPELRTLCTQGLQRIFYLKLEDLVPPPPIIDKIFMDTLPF
Experimental: as §1, with “10).” for “10). Sulindac sulfide bound to RXRα with an IC50 of 80 μM (FIG. 1A), which is in the concentration range that induces apoptosis.”
(§2) Expression vector containing receptor fused to C-terminal TAP fusion (Stratagene, La Jolla, Calif.) was transfected into HEK293 cells using FuGene 6 transfection reagent (Roche, Basel, Switzerland). The cells were maintained in exponential growth in complete medium, DMEM (Mediatech Inc., Herndon, Va.) supplemented with 10% calf serum (SCS, Hyclone Logan, Utah), 2 mM glutamine, penicillin (100 U/ml) and streptomycin (100 μg/ml). At two days post-transfection cells were switched into medium containing […] G418 until 20 days post-transfection, when dishes were scored for drug-resistant colonies. Expression of RXRα fusion protein was determined by immunoblotting. […] A standard solution of sulindac sulfide was used to obtain the calibration curve.

[6] = molecular target: T3, RXRα (Homo sapiens, UniProt P19793); experiment: as above; conditions: HEK293T cells stably expressing TAP-tagged receptor, 100 μM, 3 hr
T3 construct: expressed in transfected cells
T3 sequence (P19793 whole entry): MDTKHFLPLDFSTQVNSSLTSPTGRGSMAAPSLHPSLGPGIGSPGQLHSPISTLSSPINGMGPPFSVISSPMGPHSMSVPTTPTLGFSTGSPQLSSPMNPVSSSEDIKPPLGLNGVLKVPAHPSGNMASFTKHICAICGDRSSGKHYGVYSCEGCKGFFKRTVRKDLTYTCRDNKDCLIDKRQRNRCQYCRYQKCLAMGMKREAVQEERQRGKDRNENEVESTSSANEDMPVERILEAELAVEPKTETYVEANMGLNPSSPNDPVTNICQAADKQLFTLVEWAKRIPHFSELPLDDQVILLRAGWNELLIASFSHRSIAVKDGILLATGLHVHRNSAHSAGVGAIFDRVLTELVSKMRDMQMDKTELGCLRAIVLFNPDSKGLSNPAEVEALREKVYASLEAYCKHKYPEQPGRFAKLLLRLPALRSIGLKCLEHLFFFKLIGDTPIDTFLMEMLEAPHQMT
Experimental: as §1, with “10).” for “10). Sulindac sulfide bound to RXRα with an IC50 of 80 μM (FIG. 1A), which is in the concentration range that induces apoptosis.”
as §2

[7] = molecular target: T4, RARβ (Homo sapiens, UniProt P10826); experiment: as above; conditions: HEK293T cells, 100 μM, 3 hr
T4 construct: expressed in transfected cells
T4 sequence (P10826 whole entry, species assumed): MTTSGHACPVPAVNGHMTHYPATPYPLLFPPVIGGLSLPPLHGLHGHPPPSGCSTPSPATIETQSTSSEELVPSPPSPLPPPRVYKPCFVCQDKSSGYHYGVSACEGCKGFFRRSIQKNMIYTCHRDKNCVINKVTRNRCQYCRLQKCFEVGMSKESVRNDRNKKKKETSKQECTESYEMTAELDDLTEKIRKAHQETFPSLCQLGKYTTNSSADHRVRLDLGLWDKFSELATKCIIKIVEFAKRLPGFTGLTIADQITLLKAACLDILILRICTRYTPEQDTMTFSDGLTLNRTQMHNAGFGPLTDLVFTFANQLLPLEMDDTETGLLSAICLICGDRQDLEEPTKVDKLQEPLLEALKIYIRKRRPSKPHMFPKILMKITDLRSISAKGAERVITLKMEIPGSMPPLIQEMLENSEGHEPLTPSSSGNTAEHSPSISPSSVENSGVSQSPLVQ
Experimental: as §1, with “10).” for “10). Sulindac sulfide bound to RXRα with an IC50 of 80 μM (FIG. 1A), which is in the concentration range that induces apoptosis.”
as §2

CC1=C(CC(=O)O)c2cc(F)ccc2/C1=C\c1ccc(C(C)C)cc1 [K-80003, (Z)-2-(3-(4-Iso-propylbenzylidene)-6-fluoro-2-methyl-3H-inden-1-yl)acetic acid] was tested, and the “inhibition of TNFα-induced AKT activation, compared with Sulindac” value ([1]; 50 μM each) was “much more effective than Sulindac”, the “PARP cleavage and caspase-8 activation, combination with TNFα” value [2] was “synergistically induced PARP cleavage and caspase-8 activation” and the “inhibition of colony formation” value [3] was “much more effective than Sulindac; also recorded: almost completely suppressed”. For the same compound, the “RXRα-binding activity, fold higher than Sulindac” value ([4]; competition ligand-binding assay) was “about 34 fold”.
With CSc1ccc(/C=C2/C(C)=C(CC(=O)O)c3cc(F)ccc32)cc1 [Sulindac, (Z)-2-(3-(4-(Methylthio)benzylidene)-6-fluoro-2-methyl-3H-inden-1-yl)acetic acid] the “inhibition of TNFα-induced AKT activation” value ([1]; A549 lung cancer cells, 100 μM, TNFα 10 ng/ml) was “potently inhibited”, the “inhibition of AKT activation, Sulindac alone” value ([1]; ZR-75-1 and PC3 cells (high basal AKT activation)) was “little inhibitory effect” and the “inhibition of AKT activation, combination with TNFα” value ([1]; ZR-75-1 and PC3 cells, 100 μM, TNFα 10 ng/ml) was “almost completely”. The “binding to Nur77 in cells by HPLC” value [5] was “not other nuclear receptors such as RAR and Nur77”, the “binding to RXRα in cells by HPLC” value [6] was “direct binding” and the “binding to RAR in cells by HPLC” value [7] was “not other nuclear receptors such as RAR and Nur77”. For the same compound, the “PARP cleavage and caspase-8 activation, combination with TNFα” value [2] was “effectively induced PARP cleavage and caspase-8 activation”, the “inhibition of colony formation” value [3] was “strongly inhibited” and the IC50 ([4]; competition with [3H]9-cis-RA on RXRα LBD protein) was 80 µM.
